# Laboratory results published in publication PMC10098121, “Amphipathic barbiturates as marine product mimics with cytolytic and immunogenic effects on head and neck squamous cell carcinoma cell lines” (Frontiers in Pharmacology, 2023).
# How the values were obtained:
# Type in all cases: cell-based, human
# HSC-3 cells [1] = assay: Live cell apoptosis assay (caspase 3/7, proliferation); conditions: HSC-3, 24 h; MPMs 5 or 10 µM, cisplatin 10 µM
# Experimental: A black-walled 96-well plate (#6005182, PerkinElmer, Waltham, MA, United States) was coated with 50 µl myogel (0.5 mg/ml) per well. The next day, HSC-3 and UT-SCC-24A cells were stained with CellTrace Far Red (Invitrogen, Carlsbad, CA, USA) by resuspending 500,000 cells in 500 µl PBS and adding 0.5 µl of the dye before incubating the cells at 37°C for 20 min. Next, 2.5 ml of complete media was added to the cells, and they were incubated for another 5 min. The cells were then centrifuged and resuspended in complete media. The media remaining in the wells of the 96-well plate after myogel coating was removed and the cells were seeded with 1,000 cells/well in 100 µl of media. The cells were left to adhere overnight, and the following day, the media was replaced with 100 µl of media containing the Incucyte® caspase-3/7 green dye for apoptosis (Sartorius, Göttingen, Germany) (diluted 1:1,000), as well as 5 or 10 µM of the MPMs or 10 µM cisplatin. Control wells only contained media and the caspase-3/7 green dye. The plate was placed in the Incucyte S3 (Sartorius) and imaged at ×10 magnification every 2 hours for 24 h in total. Each condition had triplicate wells, and four images were taken per well. The experiment was conducted three times. The Incucyte software was used to analyze the area of red fluorescence (proliferation) and number of green and red objects (apoptotic cells).
# [2] = test system: phosphorylated eIF2α in HSC-3 cells; assay: Western blot for phosphorylated eIF2α; conditions: HSC-3, 24 h; cisplatin 50 µM, MPMs 5-20 µM
# Experimental: (§1) HSC-3 and UT-SCC-24A cells were seeded, 300,000 cells/well, in 6-well plates and left to adhere overnight. The media was then removed and replaced by 2 ml complete DMEM/F-12 containing 5, 7.5, 10 or 20 µM of MPM-2:0, MPM-6:0, MPM-3:2 or MPM-4:2, or 50 µM cisplatin. Some cells were left untreated. The cells were then incubated for 24 h. Next, the cell supernatants were collected before the cells were trypsinized and spun down with the supernatants. The cells were then washed twice in ice-cold PBS before being resuspended in 100 µl RIPA buffer (25 mM Tris-HCl (pH 7,6), 150 mM NaCl, 0.1% SDS, 0.5% sodium deoxycholate, 1% Triton X-100) containing 1% protease inhibitor (SIGMAFASTTM, #S8830, Sigma-Aldrich) and incubated on a shaker for 30 min. Next, the samples were sonicated and then kept at −70°C before being used. The samples were kept on ice or at 4°C during the whole procedure. The samples were thawed on ice and the protein concentration was measured using the DC Protein Assay kit (#5000111, Bio-Rad Laboratories, Hercules, CA, United States). 8 μg of protein was taken from each sample and mixed with DTT (final concentration 50 mM) and 20% 5 × sample buffer (250 mM Tris-HCl pH 6.8, 10% SDS, 20% Glycerol, 0.01% Bromphenol Blue). […]
# [3] = test system: phosphorylated eIF2α in UT-SCC-24A cells; assay: Western blot for phosphorylated eIF2α; conditions: 24 h, cisplatin 50 µM, MPMs 5-20 µM
# Experimental: as §1
# HSC-3 cells [4] = assay: Flow cytometric detection of apoptosis (Annexin V/PI); conditions: HSC-3, 24 h; cisplatin 50 µM, MPMs 5-20 µM
# Experimental: HSC-3 and UT-SCC-24A cells were seeded, 300,000 cells/well, in 6-well plates and left to adhere overnight. The media was then removed and replaced by 2 ml complete DMEM/F-12 containing 5, 7.5, 10 or 20 µM of MPM-2:0, MPM-6:0, MPM-3:2 or MPM-4:2, or 50 µM cisplatin. Some cells were left untreated. The cells were then incubated for 24 h. Next, the cell supernatants were collected before the cells were trypsinized and spun down with the supernatants. For the staining, an apoptosis detection kit was used (#88-8005-74, Thermo Fisher Scientific). The cells were washed once in PBS and once in 1x binding buffer before being incubated with FITC labeled Annexin V diluted 1:25 in 1 × binding buffer for 15 min. Next the cells were washed in 1 × binding buffer before being incubated with PI diluted 1:100 in 1 × binding buffer for at least 5 min before analysis was performed on the LSR Fortessa (BD Biosciences, CA, United States). Analyses were performed in FlowJo™ v.10 (https://www.flowjo.com/).
compound,measurement,setting,value
"N.N.[Cl][Pt][Cl] [Cisplatin, cisplatin, reference compound]",activation of caspase 3/7 / apoptosis (in words),HSC-3 cells [1],only induced apoptosis in a minority of HSC-3 cells
same,"proliferation (area of red fluorescence, in words)",HSC-3 cells [1],inhibited proliferation in HSC-3 cells
same,phosphorylation of eIF2α (in words),[2],induced high levels of phosphorylated eIF2α
same,phosphorylation of eIF2α (in words),[3],induced high levels of phosphorylated eIF2α
same,apoptotic (Annexin V+/PI−) population (in words),HSC-3 cells [4],"small, but clearly apoptotic (Annexin V+/PI−) population"
